Six compounds from US10512264B2, “Herbicidal mixtures” (Syngenta Participations AG, priority 2015, dated 2019) can be followed below.

Holding throughout (assay type): in vivo
What all share (conditions): 21 days after application

The subject of test [1] is Euphorbia heterophylla (EPHHL). The test can be described thus: Herbicidal action, pre-emergence glasshouse test, Euphorbia heterophylla. On the procedure: (§1) Seeds of a variety of test species were sown in standard soil in pots. After cultivation for one day (pre-emergence) under controlled conditions in a glasshouse (at 24/18° C., at day/night; 16 hours light; 65% humidity), the plants were sprayed with an aqueous spray solution derived from the formulation of the technical active ingredient dissolved in acetone plus formulation A containing 10.56 wt % Emulsogen EL, 42.22 wt % N-MethylPyrrolidon, 2.22 wt % DPG-Monoethyl ether at a 1:20 ratio (technical active ingredient:formulation A). To achieve the mixture treatments, the appropriate concentration of the mixture partner (commercial formulation) was added to the solution in order to achieve the desired experimental compound:mixture partner ratio).
(§2) After application, the test plants were grown in a glasshouse under controlled conditions (at 24/18° C. day/night; 16 hours light; 65% humidity) and watered twice daily. Herbicidal activity was evaluated 21 days after application in a 100-0 scale (100=total damage to plant; 0=no damage to plant).

Another test deals with Ipomea purpurea (PHBPU). Description: Herbicidal action, pre-emergence glasshouse test, Ipomea purpurea. On the procedure:
as §1, §2

Test [2] deals with Ambrosia artimisifolia (AMBEL). Description: Herbicidal action, pre-emergence glasshouse test, Ambrosia artimisifolia. The procedure:
as §1, §2

Test [3] relates to Digitaria sanguinalis (DIGSA). Description: Herbicidal action, pre-emergence glasshouse test, Digitaria sanguinalis. On the procedure: as §1, §2
A further test relates to Setaria fabarii (SETFA). Description: Herbicidal action, pre-emergence glasshouse test, Setaria fabarii. The procedure:
as §1, §2

Another test has as its system Bidens pilosa (BIDPI). Description: Herbicidal action, pre-emergence glasshouse test, Bidens pilosa. The procedure:
as §1, §2

“And” between values parts separate entries of the source, which are not always exact repeats. Equal values may be shown once.

In the case of `COC1=C(C)C(O)N(c2cc(C(C)(C)C)on2)C1=O` (stereo not drawn) [Compound 1.2], the “Activity (% of untreated) Observed” value is given as 10 % of untreated in test [1] (applied alone at 100 g/ha); 80 % of untreated in test [1] (applied alone at 250 g/ha); 2.5 % of untreated with Ipomea purpurea (PHBPU) (applied alone at 100 g/ha); 35 % of untreated in the test on Ipomea purpurea (PHBPU) (applied alone at 250 g/ha); 42.5 % of untreated in test [2] (applied alone at 100 g/ha); 92.5 % of untreated in test [2] (applied alone at 250 g/ha). Also, the “Activity (% of untreated) Observed” value is given as 0 % of untreated in test [3] (alone 100 g/ha); 5 % of untreated in test [3] (alone 250 g/ha); 0 % of untreated in the test on Setaria fabarii (SETFA) (alone 100 g/ha); 72.5 % of untreated in the test with Setaria fabarii (SETFA) (alone 250 g/ha); 65 % of untreated in the test on Bidens pilosa (BIDPI) (applied alone at 100 g/ha); 85 % of untreated in the test with Bidens pilosa (BIDPI) (applied alone at 250 g/ha).
In the case of S-Metolachlor, the “Activity (% of untreated) Observed” value is listed as 65 % of untreated in test [3] (alone 80 g/ha), 100 % of untreated in test [3] (alone 200 g/ha), 85 % of untreated in the test on Setaria fabarii (SETFA) (alone 80 g/ha) and 98.5 % of untreated in the test on Setaria fabarii (SETFA) (alone 200 g/ha).
With `CS(=O)(=O)c1ccc(C(=O)C2C(=O)CCCC2=O)c([N+](=O)[O-])c1` [Mesotrione, reference compound], the “Activity (% of untreated) Observed” value is 0 % of untreated in the test on Ipomea purpurea (PHBPU) (applied alone at 25 g/ha); 0 % of untreated with Ipomea purpurea (PHBPU) (applied alone at 50 g/ha); 50 % of untreated in the test with Ipomea purpurea (PHBPU) (applied alone at 100 g/ha); 7.5 % of untreated in test [2] (applied alone at 10 g/ha); 12.5 % of untreated in test [2] (applied alone at 50 g/ha); 25 % of untreated in test [2] (applied alone at 100 g/ha). The “Activity (% of untreated) Observed” value was 45 % of untreated in test [3] (alone 10 g/ha); 5 % of untreated in test [3] (alone 50 g/ha); 0 % of untreated in test [3] (alone 100 g/ha); 0 % of untreated with Setaria fabarii (SETFA) (alone 10 g/ha); 35 % of untreated in the test on Setaria fabarii (SETFA) (alone 50 g/ha); 57.5 % of untreated in the test on Setaria fabarii (SETFA) (alone 100 g/ha). The “Activity (% of untreated) Observed” value was 10 % of untreated in the test on Bidens pilosa (BIDPI) (applied alone at 10 g/ha) and 30 % of untreated in the test with Bidens pilosa (BIDPI) (applied alone at 25 g/ha).
`CC1=C(Cl)C(=O)N(c2cc(C(C)(C)C)on2)C1O` (stereo not drawn) [Compound 1.3]: the “Activity (% of untreated) Observed” value is listed as 5 % of untreated in test [1] (applied alone at 31.25 g/ha); 15 % of untreated in test [1] (applied alone at 62.5 g/ha); 35 % of untreated in test [1] (applied alone at 125 g/ha); 87.5 % of untreated in test [1] (applied alone at 250 g/ha); 100 % of untreated in test [1] (applied alone at 500 g/ha); 67.5 % of untreated in the test on Ipomea purpurea (PHBPU) (applied alone at 31.25 g/ha). The “Activity (% of untreated) Observed” value with Ipomea purpurea (PHBPU) (applied alone at 62.5 g/ha) was 97.5 % of untreated; in the test with Ipomea purpurea (PHBPU) (applied alone at 125 g/ha) it was 40 % of untreated and 50 % of untreated; in the test with Ipomea purpurea (PHBPU) (applied alone at 250 g/ha), 85 % of untreated and 72.5 % of untreated; in the test on Ipomea purpurea (PHBPU) (applied alone at 500 g/ha), 100 % of untreated and 90 % of untreated; in test [2] (applied alone at 31.25 g/ha), 85 % of untreated; in test [2] (applied alone at 62.5 g/ha), 97 % of untreated. Besides, the “Activity (% of untreated) Observed” value is 85 % of untreated and 98.5 % of untreated in test [2] (applied alone at 125 g/ha); 86 % of untreated and 99 % of untreated in test [2] (applied alone at 250 g/ha); 98.5 % of untreated and 99 % of untreated in test [2] (applied alone at 500 g/ha); 0 % of untreated in test [3] (alone 31.25 g/ha); 65 % of untreated in test [3] (alone 62.5 g/ha); 99 % of untreated in test [3] (alone 125 g/ha). For the same compound, the “Activity (% of untreated) Observed” value in test [3] (alone 250 g/ha) is 100 % of untreated; in test [3] (alone 500 g/ha), 99.5 % of untreated and 99 % of untreated; in the test on Setaria fabarii (SETFA) (alone 31.25 g/ha) it was 90 % of untreated; in the test on Setaria fabarii (SETFA) (alone 62.5 g/ha) it was 100 % of untreated.
Consider Bicyclopyrone [reference compound], for which the “Activity (% of untreated) Observed” value was 32.5 % of untreated in test [1] (applied alone at 10 g/ha); 77.5 % of untreated and 95 % of untreated in test [1] (applied alone at 25 g/ha); 98.5 % of untreated in test [1] (applied alone at 50 g/ha); 100 % of untreated in test [1] (applied alone at 100 g/ha); 0 % of untreated with Ipomea purpurea (PHBPU) (applied alone at 10 g/ha); 0 % of untreated in the test on Ipomea purpurea (PHBPU) (applied alone at 25 g/ha). Besides, the “Activity (% of untreated) Observed” value in the test on Ipomea purpurea (PHBPU) (applied alone at 50 g/ha) is listed as 0 % of untreated; in the test with Ipomea purpurea (PHBPU) (applied alone at 100 g/ha), 50 % of untreated; in test [2] (applied alone at 10 g/ha), 70 % of untreated; in test [2] (applied alone at 50 g/ha), 12.5 % of untreated; in test [2] (applied alone at 100 g/ha), 25 % of untreated; in test [3] (alone 10 g/ha), 87.5 % of untreated. Besides, the “Activity (% of untreated) Observed” value in test [3] (alone 50 g/ha) was 5 % of untreated; in test [3] (alone 100 g/ha), 0 % of untreated; with Setaria fabarii (SETFA) (alone 10 g/ha) it was 17.5 % of untreated; with Setaria fabarii (SETFA) (alone 50 g/ha), 35 % of untreated; in the test with Setaria fabarii (SETFA) (alone 100 g/ha), 57.5 % of untreated; in the test with Bidens pilosa (BIDPI) (applied alone at 10 g/ha) it was 0 % of untreated. The “Activity (% of untreated) Observed” value with Bidens pilosa (BIDPI) (applied alone at 25 g/ha) was 5 % of untreated.
With `COC1=C(C)C(O)N(c2cc(C(C)(C)C)ncn2)C1=O` (stereo not drawn) [Compound 1.1], the “Activity (% of untreated) Observed” value is recorded as 12.5 % of untreated in test [1] (applied alone at 100 g/ha); 70 % of untreated in test [1] (applied alone at 250 g/ha); 0 % of untreated with Ipomea purpurea (PHBPU) (applied alone at 100 g/ha); 5 % of untreated in the test on Ipomea purpurea (PHBPU) (applied alone at 250 g/ha); 37.5 % of untreated in test [2] (applied alone at 100 g/ha); 85 % of untreated in test [2] (applied alone at 250 g/ha). The “Activity (% of untreated) Observed” value is 0 % of untreated in test [3] (alone 100 g/ha), 65 % of untreated in test [3] (alone 250 g/ha), 0 % of untreated in the test with Setaria fabarii (SETFA) (alone 100 g/ha) and 70 % of untreated in the test on Setaria fabarii (SETFA) (alone 250 g/ha).
